Reference: paper PMC2939913 (Journal of medicinal chemistry, 2010)
Several values for one entry are separate records, joined by “and”; a condition that tells them apart may be missing. Identical values can stand only once.

Experiments:
P. falciparum D6 (CQS) = assay: Inhibition of P. falciparum growth; assay type: cell-based; conditions: Plasmodium falciparum, D6, 72 h, read-out: IC50 (nM) for P. falciparum D6
P. falciparum Dd2 (CQR) = assay: Inhibition of P. falciparum growth; assay type: cell-based; conditions: Plasmodium falciparum, DD2, 72 h, read-out: IC50 (nM) for P. falciparum Dd2
[1] = system: CQS D6-infected RBCs (P. falciparum); assay: Accumulation experiment in parasitized red blood cells, D6; assay type: cell-based; conditions: for Uptake: by 6 × 10^7 PRBCs after 1 hour of incubation, initial medium ∼ 5 µM, ±5%
[2] = system: CQR Dd2-infected RBCs (P. falciparum); assay: Accumulation experiment in parasitized red blood cells, Dd2; assay type: cell-based; conditions: for Uptake: by 6 × 10^7 PRBCs after 1 hour of incubation, initial medium ∼ 5 µM, ±5%
[3] = General cytotoxicity, mitogen-stimulated murine spleenic lymphocytes; assay type: cell-based; conditions: mouse, mitogen-stimulated murine splenic lymphocytes
β-hematin = β-hematin inhibition; assay type: biochemical; conditions: for IC50: read-out: β-hematin inhibition, 40 µM heme, acetate pH 4.8, Tween20, 24 hours at 37°C
[4] = system: hemozoin production in D6 P. falciparum; assay: Hemozoin inhibition in cell culture; assay type: cell-based; conditions: 24 hours
[5] = system: hemozoin production in Dd2 P. falciparum; assay: Hemozoin inhibition in cell culture; assay type: cell-based
P. berghei = assay: Mouse efficacy against P. berghei; conditions: for Mouse survival (days): 1 × 30 mg/kg
[6] = Signs of toxicity when administered to mice; assay type: in vivo; conditions: administered to mice in the P. berghei experiments
[7] = Heme-drug binding by optical titration; conditions: apparent; 2:1 heme to drug stoichiometry; 5 µM heme, phosphate buffer pH 5.7
[8] = [concentration in DV / concentration in medium]

Q: For CCN(CC)CCCC(C)Nc1ccnc2cc(Cl)ccc12 (stereo not shown) [CQ, chloroquine, reference compound], which IC50 (P. falciparum D6 (CQS)) is on record?
A: 6.9 nM

Q: And the IC50 (P. falciparum Dd2 (CQR))?
A: 102 nM

Q: And the “Uptake” value [1]?
A: 7e-09 mol

Q: What about the “Uptake” value [2] of the same molecule?
A: 5e-09 mol

Q: For CN(CCCNc1ccnc2cc(Cl)ccc12)CCCN1c2ccccc2CCc2ccccc21 [Compound 1], which IC50 [3] is on record?
A: 700 nM

Q: What about the Accumulation ratio [1, 8] of the same molecule?
A: 32,000

Q: What about the “Uptake” value [1] of the same molecule?
A: 1.6e-08 mol

Q: What about the “increase of DV concentration over initial medium concentration” value ([1]; initial medium concentration ∼ 5 µM) of the same molecule?
A: 13,000 fold

Q: What about the Accumulation ratio [2, 8] of the same molecule?
A: 38,000

Q: What about the “Uptake” value [2] of the same molecule?
A: 1.8e-08 mol

Q: And the IC50 (β-hematin)?
A: 9000 nM

Q: What about the “hemozoin formation by microscopy” value ([4]; 100 nM drug) of the same molecule?
A: some hemozoin present

Q: What about the “hemozoin formation by microscopy” value ([5]; 100 nM drug, 24 hours (not shown)) of the same molecule?
A: also the case

Q: What about the “Mouse survival (days)” value (P. berghei; oral) of the same molecule?
A: Mice euthanized day 3

Q: For Clc1ccc2c(NCCN3CCN(C(c4ccccc4)c4ccccc4)CC3)ccnc2c1 [Compound 4, N-(2-(4-Benzhydrylpiperazin-1-yl)ethyl)-7-chloroquinolin-4-amine], which IC50 [3] is on record?
A: 1900 nM

Q: What about the IC50 (β-hematin) of the same molecule?
A: 2500 nM

Q: And the “Mouse survival (days)” value (P. berghei; subcutaneous)?
A: Mice euthanized day 3

Q: What about the “increase in survival days compared to control animals” value (P. berghei; 4 × 30 mg/kg, oral) of the same molecule?
A: ~10 days

Q: For Clc1ccc2c(NCCCN3CCN(C(c4ccccc4)c4ccccc4)CC3)ccnc2c1 [Compound 5, N-(3-(4-Benzhydrylpiperazin-1-yl)propyl)-7-chloroquinolin-4-amine], which IC50 [3] is on record?
A: 1100 nM

Q: And the IC50 (β-hematin)?
A: 3500 nM

Q: Which IC50 [3] does the source give for Clc1ccc2c(NCCCN3CCCN(C(c4ccccc4)c4ccccc4)CC3)ccnc2c1 [Compound 6, N-(3-(4-Benzhydryl-1,4-diazepan-1-yl)propyl)-7-chloroquinolin-4-amine] here?
A: 700 nM

Q: Which IC50 [3] does the source give for Clc1ccc(C(c2ccccc2)N2CCN(CCNc3ccnc4cc(Cl)ccc34)CC2)cc1 (stereo not shown) [Compound 7, 7-Chloro-N-(2-(4-((4-chlorophenyl)(phenyl)methyl)piperazin-1-yl)ethyl)quinolin-4-amine] here?
A: 1400 nM

Q: Which IC50 [3] does the source give for Clc1ccc(C(c2ccccc2)N2CCN(CCCNc3ccnc4cc(Cl)ccc34)CC2)cc1 (stereo not shown) [Compound 8, 7-Chloro-N-(3-(4-((4-chlorophenyl)(phenyl)methyl)piperazin-1-yl)propyl)quinolin-4-amine] here?
A: 800 nM

Q: With Clc1ccc(C(c2ccccc2)N2CCCN(CCCNc3ccnc4cc(Cl)ccc34)CC2)cc1 (stereo not shown) [Compound 9, 7-Chloro-N-(3-(4-((4-chlorophenyl)(phenyl)methyl)-1,4-diazepan-1-yl)propyl)quinolin-4-amine] as the molecule, how does the IC50 [3] read?
A: 900 nM

Q: With Fc1ccc(C(c2ccc(F)cc2)N2CCN(CCCNc3ccnc4cc(Cl)ccc34)CC2)cc1 [Compound 10, N-(3-(4-(Bis(4-fluorophenyl)methyl)piperazin-1-yl)propyl)-7-chloroquinolin-4-amine] as the molecule, how does the IC50 [3] read?
A: 4100 nM

Q: With Clc1ccc2c(NCCN3CCCN(C4c5ccccc5-c5ccccc54)CC3)ccnc2c1 [Compound 11, N-(2-(4-(9H-Fluoren-9-yl)-1,4-diazepan-1-yl)ethyl)-7-chloroquinolin-4-amine] as the molecule, how does the IC50 [3] read?
A: 2500 nM

Q: Which IC50 [3] does the source give for Clc1ccc2c(NCCCN3CCCN(C4c5ccccc5-c5ccccc54)CC3)ccnc2c1 [Compound 12, N-(3-(4-(9H-Fluoren-9-yl)-1,4-diazepan-1-yl)propyl)-7-chloroquinolin-4-amine] here?
A: 2500 nM

Q: Which IC50 [3] does the source give for CN(CCCN1c2ccccc2CCc2ccccc21)CCNc1ccnc2cc(Cl)ccc12 [Compound 13, N^1-(7-chloroquinolin-4-yl)-N^2-(3-(10,11-dihydro-5H-dibenzo[b,f]azepin-5-yl)propyl)-N^2-methylethane-1,2-diamine] here?
A: 1400 nM

Q: And the IC50 (β-hematin)?
A: 10000 nM

Q: Which “β-hematin inhibition (µM)” value (β-hematin; IC50, 40 µM heme, acetate pH 4.8, Tween20, 24 hours at 37°C) does the source give for Clc1ccc2c(NCCCN3CCN(C(c4ccccc4)(c4ccccc4)c4ccccc4)CC3)ccnc2c1 [Compound 15, 7-Chloro-N-(3-(4-tritylpiperazin-1-yl)propyl)quinolin-4-amine] here?
A: insoluble

Q: What about the “Mouse survival (days)” value (P. berghei; subcutaneous) of the same molecule?
A: Mice euthanized day 3

Q: What about the mice cured (P. berghei; 4 × 30 mg/kg, oral, parasite-free on day 30 post-infection) of the same molecule?
A: 1/3

Q: Which IC50 (β-hematin) does the source give for Clc1ccc2c(NCCCN3CCN(C4C5CC6CC(C5)CC4C6)CC3)ccnc2c1 (stereo not shown) [Compound 17, N-(3-(4-(Adamant-2-yl)piperazin-1-yl)propyl)-7-chloroquinolin-4-amine] here?
A: 14000 nM

Q: With Clc1ccc2c(NCCN3CCC(NC(c4ccccn4)c4ccccn4)CC3)ccnc2c1 [Compound 21, 7-Chloro-N-(2-(4-(dipyridin-2-ylmethylamino)piperidin-1-yl)ethyl)quinolin-4-amine] as the molecule, how does the IC50 (β-hematin) read?
A: ~2000 nM and 2000 nM

Q: And the mice cured (P. berghei; second trial, 4 × 44 mg/kg, oral (equimolar to 30 mg/kg CQ))?
A: 3 out of 3 and 3/3

Q: Which results are given for Clc1ccc2c(NCCCN3CCC(NC(c4ccccn4)c4ccccn4)CC3)ccnc2c1 [Compound 22, 7-Chloro-N-(3-(4-(dipyridin-2-ylmethylamino)piperidin-1-yl)propyl)quinolin-4-amine]?
A: IC50 (P. falciparum Dd2 (CQR)): 1.6 nM; IC50 (β-hematin): 1600 nM; hemozoin formation by microscopy ([4]; 10 nM drug): appeared to preclude hemozoin formation; hemozoin formation by microscopy ([5]; 10 nM drug, 24 hours): appeared to preclude hemozoin formation; signs of toxicity in mice [6]: no obvious signs of toxicity; mice cured (P. berghei; 4 × 30 mg/kg, oral, parasite-free on day 30 post-infection, 30 mg/kg): two of the three and 2/3; mice cured (P. berghei; second trial, 4 × 46 mg/kg, oral (equimolar to 30 mg/kg CQ)): 9 out of 10 and 9/10

Q: With OCCN1CCN(C(c2ccccc2)c2ccccc2)CC1 [Compound 26, 2-(4-Benzhydrylpiperazin-1-yl)ethanol] as the molecule, how does the “Kd [µM (app)]” value [7] read?
A: no activity
